Experiment: gradient 5% acetonitrile 3 min, to 50% in 2 min, to 85% in 15 min, held 3 min, 100 µL/min
Conditions: column: Zorbax Extend-C18 2.1 x 50 mm; eluents: water / acetonitrile, 0.1% formic acid
Outline: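 Retention time was recorded from adduct peaks, which were picked computationally and each inspected manually. Pure standards ran in mixtures of ~100 molecules on HPLC coupled to a quadrupole time-of-flight mass spectrometer, in positive and negative ionization mode, through a Zorbax Extend-C18 column (2.1 × 50 mm, 1.8 μm) at 100 μL/min. Eluents were water and acetonitrile, each with 0.1% formic acid.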

SMILES	RP-LC retention time
CN1C(=O)COc2ccc(-c3csc(NC(=O)c4ccc(Cl)cc4)n3)cc21	1010 s
COc1cccc(CNC(=O)c2cn3cc(C)ccc3n2)c1OC	541 s
COc1ccccc1NC(=O)Cn1nc2cc(C)nc(-c3ccccc3)n2c1=O	819 s
Cc1ccc(N2C(=O)C3N=NN(Cc4nc(-c5cccc(C(F)(F)F)c5)no4)C3C2=O)cc1Cl (stereo not given)	1180 s
O=C(NCC1CN(c2ccc3c(c2)OCO3)C(=O)O1)c1ccccc1C(F)(F)F (stereo not given)	880 s
CCNC(=O)N1CCCC(c2cccc(C(=O)NCCN3CCOCC3)c2)C1 (stereo not given)	577 s
CC(C)(C)C1CCc2[nH]nc(C(=O)N3CCc4nn(CC#N)c(=O)n4CC3)c2C1 (stereo not given)	760 s
C=C(C)C(=O)Nc1ccc(NC(C)C)cc1	629 s
CCOC(=O)CSc1nnc(CNC(=O)c2cc(OC)c(OC)c(OC)c2)n1C	601 s
CCn1cc(C(=O)Nc2ccc(C)cc2Cl)c2cccnc21	984 s
COc1cccc2cc(C(=O)N(CCc3cccs3)Cc3cccnc3)oc12	671 s
O=C(CN1CCN(Cc2cccc(Cl)c2)C1=O)N1CCN(C2CCCCC2)CC1	648 s
CCCNc1cc(N2CCC(CCC(=O)N3CCN(C(=O)OCC)CC3)CC2)ncn1	620 s
COCCN(CCOC)Cc1c(C)[nH]c2c(C)c(C)ccc2c1=O	605 s
COc1ccc(-n2ccc(=O)c(-c3nc(-c4ccccc4Br)no3)n2)cc1	908 s
Cc1sc2ncnc(N3CCCC(C)C3)c2c1C(=O)Nc1ccc(Br)cc1 (stereo not given)	1310 s
Cc1ccc(-c2nc(-c3ccc(-c4noc(CNC(=O)c5ccco5)n4)cc3)cs2)s1	1130 s
CCOc1cccc2cc(C(=O)Nc3nc(-c4ccccc4)cs3)c(=N)oc12	987 s
COC(=O)Nc1ccc2[nH]cc(CCNC(C)=O)c2c1	673 s
Cc1ccc(CNC(=O)C2(C)CCCN(C(=O)Nc3cccc(Br)c3)C2)cc1 (stereo not given)	1070 s
COc1ccccc1-c1csc(NC(=O)Cc2csc(-c3ccccc3)n2)n1	1150 s
COc1cc(NC(=O)NCCc2nc3cccnc3n2C2CCCC2)cc(OC)c1	704 s
COc1ccc(-c2nnc(N3CCC(C(=O)NC(C)c4ccc(C)cc4C)CC3)o2)cc1 (stereo not given)	934 s
O=C(CCc1cc(Cl)no1)NCCc1noc(C2CC2)n1	693 s
COc1ccc(CN2CCC(C3CCN(S(C)(=O)=O)CC3)C2)cc1OC (stereo not given)	580 s
O=c1c2nnc(SCc3ccccc3)n2ccn1-c1ccc(Br)cc1	812 s
O=C(/C=C/c1ccccc1Cl)c1ccc(O)cc1	944 s

SMILES	RP-LC retention time
COc1ccc(NC(=O)N2CCC(c3nc(C(=O)N4CCOCC4)c(C)o3)CC2)c(C)c1	663 s
CCCOc1ccc(CNC(=O)C2CCN(c3cc(Oc4ccccc4)ncn3)CC2)cc1	988 s
Cc1ccc(CNC(=O)c2cccc(C3CCCN(C(=O)NC(C)C)C3)c2)cc1C (stereo not given)	952 s
C[C@@H]1CN(C(=O)c2ccco2)C[C@H]1c1nc(-c2ccccc2)no1	936 s
Cc1ccc(NC(=O)C(=O)NCCCN2CCOCC2)cc1F	573 s
COc1nn(C)cc1C(=O)NCC(=O)NCCOc1ccc(F)cc1	626 s
[C-]#[N+]/C(C(=O)Nc1ccc(C(F)(F)F)cc1)=C(\C)O	846 s
CCOc1ccc(-c2nc(-c3cccc(-c4ccnn4CC)c3)no2)cc1	1300 s
Cc1cc(NC(=O)C2=COCCO2)no1	600 s
CCN(CC)C(=O)c1ccc(-c2nc3cc(NS(=O)(=O)c4ccc(C)cc4)ccc3n2C)cc1	700 s
O=C(COc1ccc(Cl)cc1Cl)Nc1ccc2c(c1)N(C(=O)c1cccs1)CC2	1060 s
Cc1ccc(Cl)c(NS(=O)(=O)c2cc(-c3[nH]ncc3C(=O)N(C)C)oc2C)c1	717 s
Cn1c(=O)sc2cc(S(=O)(=O)N3CCC(C(=O)NC4CCCCC4)CC3)ccc21	822 s
COCCc1noc([C@@H]2CC(F)(F)CN2C(=O)c2ccco2)n1	716 s
COc1ccc(-c2noc(Cc3nnc(-c4cc(F)cc(F)c4)o3)n2)cc1OC	924 s
CCc1nn2c(CNC(=O)c3ccc(C)c(C)c3)c(-c3ccccc3)nc2s1	983 s
COc1ncc(C(=O)NCc2ccc(SC)cc2)cn1	747 s
COCc1nc(CCNC(=O)NCC(C)C)no1	626 s
O=C(NC1CCN(c2ncnc3c2CCC3)C1)c1ccsc1 (stereo not given)	580 s
COc1cc(-c2nc(Nc3ccc(C)cc3)c3ccccc3n2)cc(OC)c1OC	796 s
CC(C)(C)NC(=O)N1CCC(OC2CCN(Cc3ccccc3)CC2)CC1	625 s
O=C(Nc1cc(-c2cccs2)no1)C1CC1	803 s
COc1ccc(Br)cc1Cn1nnc(C(=O)NCc2ccco2)c1N	791 s
Cc1ccc(Cn2cc(-c3ccncc3)cc2C(=O)NCc2ccc(C)o2)cc1	734 s
O=C(Cn1cccc1-c1nnc(C2CCC2)o1)Nc1ccc(F)c(F)c1	945 s
CC(=O)NC(CC(C)C)C(=O)NC(Cc1ccccc1)C(=O)CCl (stereo not given)	750 s

The next lines start with the values.

RP-LC retention time	SMILES
660 s	CC(Oc1ccccc1F)C(=O)NCCn1nc(-n2cccn2)ccc1=O (stereo not given)
749 s	CN(C)c1cccc(C(=O)Nc2cnn(-c3ncc(N4CCCC4)cn3)c2)c1
662 s	CC(NC(=O)C1=CCN(Cc2cccc(F)c2)CC1)c1ccccc1 (stereo not given)
554 s	O=C1CCCC(=O)N1CCS(=O)(=O)N1CCN(Cc2nc3ccccc3[nH]2)CC1
795 s	CN(C)S(=O)(=O)c1ccc2c(c1)N(CC(=O)Nc1ccccn1)C(=O)C1CCCCN21 (stereo not given)
802 s	Cc1ccc(N2CCN(C(=O)C3CC(=O)N(c4cccc(NC(=O)C(C)C)c4)C3)CC2)cc1 (stereo not given)
1040 s	CCOC(=O)CSc1nc2c(sc3ccccc32)c(=O)n1Cc1ccco1
569 s	O=C(NCCCN1CCCCC1)c1cc2n(n1)CCCN(Cc1ccccc1)C2=O
754 s	CN(C)S(=O)(=O)c1ccc(-c2nnc(C(=O)NC3CCN(Cc4ccccc4)CC3)o2)cc1
666 s	CNC(=O)C1CCCN(c2nc3ncn(CC(=O)N4CCc5ccccc5C4)c(=O)c3s2)C1 (stereo not given)
843 s	Cc1ccc(NC(=O)N2CCC(N3CCN(Cc4ccccc4)C3=O)CC2)cc1C
1210 s	Cc1ccc(S(=O)(=O)N2CCCC2c2nc(-c3cccc(C(F)(F)F)c3)no2)cc1 (stereo not given)
884 s	Cc1ccc(N(Cc2ccccc2)S(=O)(=O)c2ccc3nnc(C)n3c2)cc1
1060 s	Cc1ccc(-n2c(=O)c3sccc3n(Cc3nc(-c4cccc(C)c4)no3)c2=O)cc1
688 s	CCn1nccc1C(=O)NC1CCN(c2cc(-c3ccccc3)[nH]n2)CC1
761 s	CCOC(=O)Cn1c(C2CC(=O)N(c3ccccc3Cl)C2)nc2ccccc21 (stereo not given)
710 s	CC(C)CC(NC(=O)c1ccc2c(c1)OCO2)C(=O)Nc1nc2ccccc2[nH]1 (stereo not given)
779 s	Cc1nnc2ccc(N3CCC(C(=O)NC(C)CCc4ccccc4)CC3)nn12 (stereo not given)
942 s	Cc1ccc(-c2cc(=O)n3c4ccccc4n(CC(=O)NC4CCCC4)c3n2)cc1

RP-LC retention time	SMILES
795 s	CCC(C)NC(=O)CSc1nc(N2CCc3ccccc3C2)nc2ccccc12 (stereo not given)
916 s	CS(=O)(=O)Nc1ccc(C2(C(=O)NCc3cc(F)cc(F)c3)CCCCC2)cc1
700 s	CCN(CC)c1nc(-c2ccccc2F)nc2ccccc12
615 s	COc1ccc(CN(Cc2cc(=O)n3ccccc3n2)CC(C)C)cc1OC
694 s	COc1ccc(S(=O)(=O)N2CCC(n3cnnc3C)CC2)cc1Cl
675 s	Cc1ccccc1NC(=O)C1CCN(S(=O)(=O)c2c(C)[nH]c(C)c2C(=O)N2CCCC2)CC1
950 s	CS(=O)(=O)Nc1ccc(C2(C(=O)NCc3ccc(F)c(Cl)c3)CCCCC2)cc1
743 s	CC(C)Cn1c(=O)c(N2CCN(S(=O)(=O)c3ccccc3F)CC2)nc2ccncc21
956 s	COc1ccc(Cl)cc1C(=O)N1CCN(c2ccc(-c3nc(C)c(C)s3)cn2)CC1
704 s	O=C(NCCC1CCN(C(=O)Nc2ccccc2)CC1)c1ccoc1
845 s	CCOC(=O)c1nc(Nc2ccc(F)cc2F)c2ccccc2n1
600 s	CCN1CCN(CCNC(=O)CN2C(=O)CSc3cccn3-c3ccccc32)CC1
1000 s	Cc1ccc(N2C(=O)CN(S(=O)(=O)c3ccccc3)CC2(C)C(=O)NC2CCCCC2)cc1 (stereo not given)
913 s	CCC(=O)N1c2ccccc2CC1c1nc(C(C)C)no1 (stereo not given)
729 s	CC(=O)N1CCC(C(=O)NCc2c(-c3ccccc3)nc3sc(C)nn23)CC1
598 s	O=C(Nc1ccc(Cl)c(Cl)c1)N1CCN(Cc2ccsc2)CC1
776 s	Cc1nc(CCNC(=O)C2CCN(S(=O)(=O)c3cccc(C(F)(F)F)c3)CC2)cs1
778 s	O=c1n(Cc2ccccc2)nc2ccc(S(=O)(=O)N3CCOCC3)cn12

From the METLIN SMRT retention time set (Domingo-Almenara et al. 2019)
